{"source": "patent US10188743B2", "about": "“Cytisine-linked isoflavonoid antineoplastic agents for the treatment of cancer” (UNIVERSITY OF KENTUCKY RESEARCH FOUNDATION, priority 2016, dated 2019)", "key": {"AMPK": {"test_system": "AMPK", "assay": "AMPK activation (levels of phosphorylated AMPK, Western blotting)", "type": "cell-based", "method": "(§1) Biochemistry. Western blotting: Cells were lysed in the appropriate volume of lysis buffer (50 mM HEPES, 100 mM NaCl, 2 mM EDTA, 1% glycerol, 50 mM NaF, 1 mM Na3VO4, 1% Triton X-100, with protease inhibitors). The following antibodies were used: HSD17B4 (GeneTex, GTX103864), AMPK (Cell Signaling, 2532), pAMPK (Cell Signaling, 2535), ACC (Cell Signaling, 3676), pACC (Cell Signaling, 11818), p^70 (Cell Signaling, 2708), p-p^70 (Cell Signaling, 9914), S6 (Cell Signaling, 2217), pS6 (Cell Signaling, 4858), MCCA (GeneTex, GTX110062), tubulin (Hybridoma Bank, E7), Actin (Sigma, A1978), His-tag (BD Pharmingen, 552564)."}, "[1]": {"test_system": "acetyl CoA carboxylase (ACC)", "assay": "ACC phosphorylation / activation downstream of AMPK (Western blotting)", "type": "cell-based", "conditions": "PC-3 and LS174T cells", "method": "as §1"}, "S6": {"test_system": "S6", "assay": "S6 phosphorylation, mTor pathway (Western blotting)", "type": "cell-based", "conditions": "PC-3 and LS174T cells", "method": "as §1"}, "[2]": {"test_system": "LS174T colon cancer cells", "assay": "Cancer cell proliferation (Vi-Cell viability and number)", "type": "cell-based", "conditions": "10 μM of compound", "method": "(§2) Cell Culture. LS74T colon cancer cells were cultured in MEM/EBSS (Hyclone SH30024) and PC-3 prostate cancer cells were cultured in DMEM/F-12 HAM Mixture (Sigma D8437) containing 10% Fetal Bovine Serum (Atlanta Biological S11150). Cells (3.5×10^4 cells per well) were split into 12-well plates. After 24 h, 10 μM of each compound were added to each well. DMSO was used as a control. Each experiment was done in triplicate. Cell viability and number were analyzed using the Vi-Cell XR Cell Viability Analyzer (Beckman Coulter). To knock-down HSD17B4 levels, PC-3 and LS174 cell lines were infected with lenti-virus carrying pLKO.1-control shRNA and pLKO.1-HSD17B4b shRNA, respectively. Control shRNA and HSD17B4b shRNA cloned in pLKO.1 vectors with puromycin-resistance selection marker were purchased from Sigma. Lentiviral stocks were prepared as previously described (Yu, 2012)."}, "[3]": {"test_system": "PC-3 prostate cancer cells", "assay": "Cancer cell proliferation (Vi-Cell viability and number)", "type": "cell-based", "conditions": "10 μM of compound", "method": "as §2"}, "[4]": {"molecular_target": "T1, hydratase activity of HSD17B4 (Homo sapiens, UniProt P51659)", "T1 construct": "His-tag; made in house; host or cells: E. coli BL21 (pET28)", "T1 sequence (P51659 1-736)": "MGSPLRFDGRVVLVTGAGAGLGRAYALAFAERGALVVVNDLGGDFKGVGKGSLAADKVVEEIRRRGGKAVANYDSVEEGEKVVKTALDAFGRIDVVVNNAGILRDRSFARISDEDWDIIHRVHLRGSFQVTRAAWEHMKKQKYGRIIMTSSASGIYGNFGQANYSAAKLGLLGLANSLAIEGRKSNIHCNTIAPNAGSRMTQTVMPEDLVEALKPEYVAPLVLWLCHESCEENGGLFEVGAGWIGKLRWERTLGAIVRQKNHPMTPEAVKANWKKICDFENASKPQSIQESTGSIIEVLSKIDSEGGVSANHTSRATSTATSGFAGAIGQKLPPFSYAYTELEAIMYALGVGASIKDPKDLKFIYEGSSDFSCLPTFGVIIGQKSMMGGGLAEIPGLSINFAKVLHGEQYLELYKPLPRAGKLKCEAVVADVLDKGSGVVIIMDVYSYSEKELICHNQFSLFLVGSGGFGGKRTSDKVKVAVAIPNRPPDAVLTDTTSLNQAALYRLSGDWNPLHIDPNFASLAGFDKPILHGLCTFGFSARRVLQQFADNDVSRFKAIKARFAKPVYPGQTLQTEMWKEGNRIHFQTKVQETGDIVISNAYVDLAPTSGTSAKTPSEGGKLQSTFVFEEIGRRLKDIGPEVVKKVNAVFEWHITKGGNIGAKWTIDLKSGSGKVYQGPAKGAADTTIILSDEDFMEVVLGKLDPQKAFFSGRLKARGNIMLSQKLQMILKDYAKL", "assay": "HSD17B4 hydratase assay (crotonoyl CoA substrate)", "type": "biochemical", "from_the_text": "We acquired further evidence along these lines through studies using the N-terminal α,β-dehydrogenase and C-terminal hydratase fragments of HSD17B4 as well as the full-length protein. We evaluated the α,β-dehydrogenase activity using DL-3-hydroxylbutyryl-CoA as a substrate and the conversion of NAD^+ to NADH as a readout. We concomitantly measured the hydratase activity using crotonoyl-CoA as a substrate and the diminished ultraviolet absorption of the α,β-unsaturated thioester chromophore as readout. The full-length protein, as expected, had both enzyme activities (FIGS. 7A and 7B). The C-terminal-truncated fragments N318 and N634 but not the N-terminal-truncation fragment C919 had α,β-dehydrogenase activity (FIG. 7A). The C-terminal fragment N634 and the N-terminal fragment C919, but not the C-terminal fragment N318, had hydratase activity (FIG. 7B), as summarized in FIG. 3A.\nThe enzymatic activities of HSD17B4 were analyzed using the method reported by Novikov et al. (J. Biol. Chem., 1994, 269, 27125). […] The reaction was quantified by measuring the fluorescent product NADH (excitation: 340 nm; emission 460 nm). […] The reaction was quantified by measuring the remaining substrate using absorbance at 280 nm."}, "LS174T cancer cells": {"test_system": "LS174T cancer cells", "assay": "Acetyl-CoA analysis of treated cells", "type": "cell-based", "method": "Cell Metabolism. Acetyl-CoA analysis: Cells grown in 6 cm plates were treated with DMSO or inhibitors, and harvested in lysis buffer (20 mM Tris pH 7.5, 150 mM NaCl, 1 mM EDTA, 1 mM EGTA, 1% Triton X-100, 2.5 mM sodium pyrophosphate, 1 mM Na3VO4, 1 ug/mL Leupeptin, 1 mM PMSF and 1:100 Protease inhibitor cocktail). Supernatants were analyzed using PicoProbe Acetyl CoA kit (Abcam, ab87546)."}}, "data": [{"smiles": "O=c1c(-c2ccc(Cl)cc2)coc2cc(OCCN3C[C@@H]4C[C@@H](C3)c3cccc(=O)n3C4)ccc12", "note": "[Compound 10c, (1 S,5S)-3-(2-((3-(4-chlorophenyl)-4-oxo-4H-chromen-7-yl)oxy)ethyl)-3,4,5,6-tetrahydro-1H-1,5-methanopyrido[1,2-a][1,5]diazocin-8(2H)-one]", "values": [{"measurement": "AMPK activation", "setting": "AMPK; LS174T colon cancer cells", "result": "activated AMPK"}, {"measurement": "AMPK activation", "setting": "AMPK; PC-3 prostate cancer cells", "result": "activated AMPK"}, {"measurement": "ACC phosphorylation", "setting": "[1]", "result": "induced appreciable ACC phosphorylation"}, {"measurement": "phosphorylation of S6", "setting": "S6", "result": "inhibited the phosphorylation"}, {"measurement": "proliferation of LS174T cells", "setting": "[2]", "result": "significantly inhibited the proliferation"}, {"measurement": "proliferation of PC-3 cells", "setting": "[3]", "result": "significantly inhibited the proliferation"}, {"measurement": "effect on hydratase activity", "setting": "[4]", "result": "significantly inhibited"}, {"measurement": "level of acetyl CoA", "setting": "LS174T cancer cells", "result": "decreased the levels"}]}]}
